Assay results reported in patent US10358434B2, “2-(3-pyridinyl)-1H-benzimidazole derivative compound and medicament containing same” (NIHON MEDI-PHYSICS CO., LTD., priority 2014, dated 2019).

What was measured:
[1] = system: human adrenal gland section expressing aldosterone-producing adenoma; experiment: In vitro autoradiography using human adrenal adenoma; format: binding; conditions: section of FIG. 17(b)
Summary of the method: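 Frozen 7-μm sections of human adrenal bearing aldosterone-producing adenoma were immersed 10 min in radioligand (5-33 kBq/mL) in PBS with 1% fatty-acid-free BSA, washed, then exposed to imaging plates for 16-20 h. Equal-area ROI PSL in adenoma (B2) versus normal cortex (B1) gave B2/B1, corrected for nuclide half-life, added activity and exposure time.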

[2] = In vivo kinetics experiment (radioactivity distribution); design: species or system Wistar male rat; conditions: rat i.v., mean ± SD
Summary of the method: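 Male Wistar rats (9 weeks) under isoflurane received approximately 1 to 3.7 MBq radiotracer in saline with 1 w/v % ascorbic acid by tail-vein injection. At 10, 30 and 60 min, rats were exsanguinated; blood, organs and remaining body weighed and counted, giving % ID/g and adrenal-to-tissue ratios.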

[3] = Plasma stability evaluation (TLC analysis); format: in vitro ADME; conditions: 37° C., 60 minutes, TLC analysis
Summary of the method: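 Radiolabelled compounds were incubated in heparin-treated pooled normal human plasma at 37° C for 60 minutes. After methanol deproteinization and centrifugation, stability was assessed by TLC under the conditions used for each compound's synthesis.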

COc1cc([123I])cc2c1nc(-c1cncc(Cn3ccnc3)c1)n2C1CC1 [[^123I] 609, 1-Cyclopropyl-2-[5-(imidazol-1-ylmethyl)pyridin-3-yl]-6-[^123I]iodo-4-methoxybenzimidazole]
B2/B1 accumulation ratio [1]: 0.85 | B2 (PSL value, aldosterone-producing adenoma) ([1]; site 71b): 3805 | B1 (PSL value, normal adrenal cortex) ([1]; site 72b): 4479 | Adrenal gland/blood ratio of radioactivity accumulation ([2]; 10 min after administration): 70.18 ± 9.10 | Adrenal gland/fat ratio of radioactivity accumulation ([2]; 10 min after administration): 92.34 ± 17.88 | Adrenal gland/kidney ratio of radioactivity accumulation ([2]; 10 min after administration): 7.38 ± 1.46 | Adrenal gland/liver ratio of radioactivity accumulation ([2]; 10 min after administration): 1.55 ± 0.09 | Adrenal gland/muscle ratio of radioactivity accumulation ([2]; 10 min after administration): 46.03 ± 17.74 | Adrenal gland/small intestine ratio of radioactivity accumulation ([2]; 10 min after administration): 5.04 ± 0.97 | Radioactivity distribution Adrenal gland ([2]; 10 min after administration): 8.54 ± 1.17 % ID/g | Radioactivity distribution Bladder (including urine) ([2]; 10 min after administration): 0.17 ± 0.08 % ID/g | Radioactivity distribution Blood ([2]; 10 min after administration): 0.12 ± 0.00 % ID/g | Radioactivity distribution Fat ([2]; 10 min after administration): 0.09 ± 0.01 % ID/g | Radioactivity distribution Femur ([2]; 10 min after administration): 0.37 ± 0.06 % ID/g | Radioactivity distribution Heart ([2]; 10 min after administration): 0.36 ± 0.01 % ID/g | Radioactivity distribution Kidney ([2]; 10 min after administration): 1.17 ± 0.08 % ID/g | Radioactivity distribution Large intestine ([2]; 10 min after administration): 0.16 ± 0.01 % ID/g | Radioactivity distribution Liver ([2]; 10 min after administration): 5.50 ± 0.46 % ID/g | Radioactivity distribution Lung ([2]; 10 min after administration): 0.51 ± 0.04 % ID/g | Radioactivity distribution Muscle (lower limbs) ([2]; 10 min after administration): 0.20 ± 0.06 % ID/g | Radioactivity distribution Remaining whole body ([2]; 10 min after administration): 0.20 ± 0.03 % ID/g | Radioactivity distribution Small intestine ([2]; 10 min after administration): 1.71 ± 0.18 % ID/g | Radioactivity distribution Spleen ([2]; 10 min after administration): 0.82 ± 0.05 % ID/g | Radioactivity distribution Stomach ([2]; 10 min after administration): 0.65 ± 0.25 % ID/g | Radioactivity distribution Testis ([2]; 10 min after administration): 0.05 ± 0.00 % ID/g | Radioactivity distribution Whole brain ([2]; 10 min after administration): 0.02 ± 0.00 % ID/g | Adrenal gland/blood ratio of radioactivity accumulation ([2]; 30 min after administration): 78.36 ± 23.36 | Adrenal gland/fat ratio of radioactivity accumulation ([2]; 30 min after administration): 110.76 ± 35.85 | Adrenal gland/kidney ratio of radioactivity accumulation ([2]; 30 min after administration): 11.13 ± 2.62 | Adrenal gland/liver ratio of radioactivity accumulation ([2]; 30 min after administration): 2.54 ± 0.51 | Adrenal gland/muscle ratio of radioactivity accumulation ([2]; 30 min after administration): 66.27 ± 15.78 | Adrenal gland/small intestine ratio of radioactivity accumulation ([2]; 30 min after administration): 2.54 ± 0.80 | Radioactivity distribution Adrenal gland ([2]; 30 min after administration): 11.21 ± 3.24 % ID/g | Radioactivity distribution Bladder (including urine) ([2]; 30 min after administration): 0.80 ± 0.10 % ID/g | Radioactivity distribution Blood ([2]; 30 min after administration): 0.14 ± 0.01 % ID/g | Radioactivity distribution Fat ([2]; 30 min after administration): 0.10 ± 0.02 % ID/g | Radioactivity distribution Femur ([2]; 30 min after administration): 0.29 ± 0.04 % ID/g | Radioactivity distribution Heart ([2]; 30 min after administration): 0.36 ± 0.02 % ID/g | Radioactivity distribution Kidney ([2]; 30 min after administration): 1.00 ± 0.07 % ID/g | Radioactivity distribution Large intestine ([2]; 30 min after administration): 0.18 ± 0.03 % ID/g | Radioactivity distribution Liver ([2]; 30 min after administration): 4.36 ± 0.46 % ID/g | Radioactivity distribution Lung ([2]; 30 min after administration): 0.42 ± 0.05 % ID/g | Radioactivity distribution Muscle (lower limbs) ([2]; 30 min after administration): 0.17 ± 0.03 % ID/g | Radioactivity distribution Remaining whole body ([2]; 30 min after administration): 0.14 ± 0.01 % ID/g | Radioactivity distribution Small intestine ([2]; 30 min after administration): 4.44 ± 0.63 % ID/g | Radioactivity distribution Spleen ([2]; 30 min after administration): 0.43 ± 0.03 % ID/g | Radioactivity distribution Stomach ([2]; 30 min after administration): 1.27 ± 0.17 % ID/g | Radioactivity distribution Testis ([2]; 30 min after administration): 0.07 ± 0.01 % ID/g | Radioactivity distribution Whole brain ([2]; 30 min after administration): 0.02 ± 0.00 % ID/g | Adrenal gland/blood ratio of radioactivity accumulation ([2]; 60 min after administration): 87.48 ± 12.64 | Adrenal gland/fat ratio of radioactivity accumulation ([2]; 60 min after administration): 147.76 ± 20.75 | Adrenal gland/kidney ratio of radioactivity accumulation ([2]; 60 min after administration): 13.00 ± 2.52 | Adrenal gland/liver ratio of radioactivity accumulation ([2]; 60 min after administration): 3.99 ± 0.57 | Adrenal gland/muscle ratio of radioactivity accumulation ([2]; 60 min after administration): 103.59 ± 13.53 | Adrenal gland/small intestine ratio of radioactivity accumulation ([2]; 60 min after administration): 1.53 ± 0.14 | Radioactivity distribution Adrenal gland ([2]; 60 min after administration): 11.04 ± 1.72 % ID/g | Radioactivity distribution Bladder (including urine) ([2]; 60 min after administration): 2.03 ± 0.70 % ID/g | Radioactivity distribution Blood ([2]; 60 min after administration): 0.13 ± 0.00 % ID/g | Radioactivity distribution Fat ([2]; 60 min after administration): 0.07 ± 0.01 % ID/g | Radioactivity distribution Femur ([2]; 60 min after administration): 0.33 ± 0.03 % ID/g | Radioactivity distribution Heart ([2]; 60 min after administration): 0.33 ± 0.02 % ID/g | Radioactivity distribution Kidney ([2]; 60 min after administration): 0.85 ± 0.03 % ID/g | Radioactivity distribution Large intestine ([2]; 60 min after administration): 0.63 ± 0.43 % ID/g | Radioactivity distribution Liver ([2]; 60 min after administration): 2.77 ± 0.15 % ID/g | Radioactivity distribution Lung ([2]; 60 min after administration): 0.38 ± 0.02 % ID/g | Radioactivity distribution Muscle (lower limbs) ([2]; 60 min after administration): 0.11 ± 0.00 % ID/g | Radioactivity distribution Remaining whole body ([2]; 60 min after administration): 0.10 ± 0.00 % ID/g | Radioactivity distribution Small intestine ([2]; 60 min after administration): 7.17 ± 0.45 % ID/g | Radioactivity distribution Spleen ([2]; 60 min after administration): 0.30 ± 0.01 % ID/g | Radioactivity distribution Stomach ([2]; 60 min after administration): 1.47 ± 0.33 % ID/g | Radioactivity distribution Testis ([2]; 60 min after administration): 0.07 ± 0.01 % ID/g | Radioactivity distribution Whole brain ([2]; 60 min after administration): 0.01 ± 0.00 % ID/g | Radiochemical purity after incubation in human plasma [3]: 86%
